# US20220096529A1, “2-HYDROXYPROPYL-BETA-CYCLODEXTRIN (HPBETACD) FOR USE IN THE TREATMENT OF BREAST CANCER” (UNIVERSITY OF THE WITWATERSRAND, JOHANNESBURG, priority 2019, published 2022)
# Like-named read-outs stand apart in the source and are kept apart here.
# How the values were obtained:
# MCF7 cells [1] = assay: MTT growth inhibition assay; assay type: cell-based, human
# Protocol: (§1) Cells were cultured in appropriate medium supplemented with 10% FCS, penicillin (100 U/ml), and streptomycin (100 μg/ml) (Gibco) at 5% CO2 in a 37° C. incubator.
# (§2) Four different cell lines were used MCF7 (ER+). MDA-MB-231 (ER−), MRC-5 (Lung Fibroblasts) and HEK-293 (Embryonic kidney). MRC-5 and/or HEK-293 were used as control cell lines depending on availability.
# (§3) In order to determine whether HPβCD has the ability to induce cancer cell death a primary screening using an MTT assay was performed. Three different time points 24 hrs.
# MDA-MB-231 cells [2] = assay: MTT growth inhibition assay; assay type: cell-based, human
# Protocol: as §1, §2, §3
# MCF7 cells [3] = assay: Caspase 3/7 assay; assay type: cell-based, human; conditions: MCF7, 10 mM HPβCD
# Protocol: (§4) The final step in apoptosis following the intrinsic pathway is the activation of executioner caspases like caspase 3 and caspase 7 […]. Therefore, to confirm that cell death was due to the mitochondrial mediated pathway of apoptosis a Caspase 3/7 assay was conducted. Caspases are activated in response to a myriad of cellular death stimuli and they dismantle the cell. Caspase 3 and caspase 7 contribute to the majority of proteolytic cleavage occurring in apoptosis. As a final step to confirm and validate apoptosis via the mitochondrial intrinsic pathway, the Caspase 3/7 assay was conducted on three cell lines: MCF7, MDA-MB-231 & HEK-293. HPβCD and positive (40 μM PL) were treated for 24 hrs. The percentage of dead/apoptotic cells are clearly indicated in specific corners of each quadrants in the above plots.
# HEK-293 cells = assay: Caspase 3/7 assay; assay type: cell-based, human; conditions: HEK-293, 10 mM HPβCD, 24 hrs
# Protocol: as §4
# MDA-MB-231 cells [4] = assay: Caspase 3/7 assay; assay type: cell-based, human; conditions: MDA-MB-231, 10 mM HPβCD, 24 hrs
# Protocol: as §4
# MRC-5 cells [5] = assay: Cholesterol quantification assay; assay type: cell-based, human
# Protocol: (§5) To investigate if the apoptosis observed from all the above assays was due to cholesterol depletion, a cholesterol assay was performed on all three cell lines: MCF7, MDA-MB-231 and MRC-5. HPβCD and the positive PL, a known cholesterol depletor were treated for 24 hrs.
# (§6) HPβCD and the positive (40 μM PL) were treated for 24 hrs. This assay gave us an estimate of total cholesterol, cholesterol esters and free cholesterol.
# MCF7 cells [6] = assay: Cholesterol quantification assay; assay type: cell-based, human; conditions: MCF7, all concentrations 1, 5, 10, 20, 50 mM
# Protocol: as §5, §6
# MDA-MB-231 cells [7] = assay: Cholesterol quantification assay; assay type: cell-based, human; conditions: MDA-MB-231, all concentrations 1, 5, 10, 20, 50 mM
# Protocol: as §5, §6
# [8] = AST/ALT assay of mice serum; assay type: in vivo
# Protocol: Post-euthanisation, the mice serum was analysed for AST/ALT ([…]) levels in order to observe if HPβCD treatment had any toxic effects on liver of treated mice (FIG. 37). The AST/ALT ratio gives an estimate of liver toxicity or damage. […] The AST/ALT ratio for all the early and intermediate groups was not different from the untreated group, was under the recommended ratio of 2 and the values were below the reference range (40 U/L) except for AST levels in the late group. In latter groups, the ratio of AST/ALT was 2.2 which was slightly above the recommended limit but was not found to be statistically different from the untreated group. […] In this regard review FIG. 37.
# MRC-5 cells [9] = assay type: cell-based, human; conditions: for concentration for 50% growth inhibition in normal cells compared to cancerous cells: MRC-5 and HEK-293 vs cancerous cells
# Protocol: as §1, §2, §3
substance,measurement,setting,value
2-hydroxypropyl-β-cyclodextrin [HPβCD],growth inhibition,"MCF7 cells [1]; MCF7, 10 mM HPβCD, all three time points (24, 48, 72 hrs)",~45%
same,IC50,"MCF7 cells [1]; MCF7, 24 hrs",11.1 mM
same,IC50,"MCF7 cells [1]; MCF7, 48 hrs",9.82 mM
same,IC50,"MCF7 cells [1]; MCF7, 72 hrs",7.45 mM
same,growth inhibition,"MDA-MB-231 cells [2]; MDA-MB-231, 10 mM HPβCD, all three time points",~45%
same,IC50,"MDA-MB-231 cells [2]; MDA-MB-231, 24 hrs",12.3 mM
same,IC50,"MDA-MB-231 cells [2]; MDA-MB-231, 48 hrs",11.2 mM
same,IC50,"MDA-MB-231 cells [2]; MDA-MB-231, 72 hrs",8.56 mM
same,total apoptosis compared to untreated,MCF7 cells [3],almost two times more
same,Total Apoptotic (caspase 3/7),MCF7 cells [3]; 24 hrs,12.5%
same,Total Live (caspase 3/7),HEK-293 cells,66.75%
same,Total Apoptotic (caspase 3/7),MDA-MB-231 cells [4],48.75%
same,total cholesterol reduction compared to untreated,"MRC-5 cells [5]; MRC-5, 10 mM HPβCD, 24 hrs",more than 50%
same,total cholesterol content compared to untreated,"MRC-5 cells [5]; MRC-5, all concentrations 1, 5, 10, 20, 50 mM",reduced total cholesterol content
same,total cholesterol content compared to untreated,MCF7 cells [6],reduced total cholesterol content
same,total cholesterol content compared to untreated,MDA-MB-231 cells [7],reduced total cholesterol content
same,AST/ALT ratio,[8]; early and intermediate groups,< 2
same,ratio of AST/ALT,"[8]; late group, mice serum post-euthanisation",2.2
same,liver toxicity,"[8]; mouse, in vivo, 3000 mg/kg",caused no toxicity
same,IC50,"MRC-5 cells [9]; MRC-5, 24 hrs",20.7 mM
same,IC50,"MRC-5 cells [9]; MRC-5, 48 hrs",19.9 mM
same,IC50,"MRC-5 cells [9]; MRC-5, 72 hrs",41.7 mM
same,growth inhibition,"MRC-5 cells [9]; MRC-5, till 10 mM HPβCD, 24 hrs and 48 hrs",absolutely zero growth inhibition
same,concentration for 50% growth inhibition in normal cells compared to cancerous cells,MRC-5 cells [9]; 24 hrs,almost double
same,concentration for 50% growth inhibition in normal cells compared to cancerous cells,MRC-5 cells [9]; 72 hrs,almost five times
